Patent publication US5843959A, “Methods and bicyclic polyamine compositions for the treatment of inflammation” (University of Florida Research Foundation, Inc., priority 1997, dated 1998)
Entries after “also recorded” stand apart in the source; their conditions may differ.

What was measured:
[1] = test system: BALB/c responder splenocytes with CBA/J stimulator cells; assay: Mixed lymphocyte response (MLR); type: cell-based, mouse (BALB/c
Description: (§1) This study examined the potential immunomodulatory activities of PIP[4,4,4] on mouse spleen cells using in vitro techniques. The effect of the compound on the ability of murine splenocytes to respond to the […] mitogen concanavalin A (Con A) and the B cell mitogen lipopolysaccharide (LPS) was studied. […] In addition, the compound was tested for its effect on the mixed lymphocyte response (MLR). The MLR is an in vitro manifestation of cell-mediated immunity in which T cells respond to differences in major histocompatibility complex (MHC) class II molecules (Ia antigens) expressed on foreign or allogeneic leukocytes (primarily B cells and […]/monocytes).
(§2) a. Preparation of cells--Under sterile conditions, spleens were removed from BALB/c (H-2^d) and CBA/J (H-2^k) mice. BALB/c splenocytes were used as responder cells in the mitogen assays and the MLR assays, whereas CBA/J cells were used as stimulator cells in the MLR assays. […] Cells were exposed to various concentrations of the test compounds for the entire culture period. The initial dilutions in medium were filter sterilized to maintain aseptic conditions.
c. […] Thus, a BALB/c (2×10^5 cells/well) anti-CBA/J (8×10^5 cells/well) MLR combination was used in these studies. CBA/J spleen cells were irradiated with 2,000 R to prevent them from responding to BALB/c MHC antigens. Triplicate wells were set up in 96-well flat-bottom microtiter plates for all treated cultures and positive controls (100% of control) were performed in replicates of nine wells. Plates were incubated at 37° C. in a humidified CO2 incubator for 5 days, pulsed with 1 μCI […]/well for 6-16 hours, harvested and counted in a liquid scintillation counter. All data were processed using Lotus 1-2-3 and SigmaPlot software.

[2] = test system: BALB/c splenocytes stimulated with LPS; assay: Mitogen response to LPS (B cell proliferation); type: cell-based, mouse (BALB/c)
Description: as §1, §2
b. Mitogen assays--Con A and LPS were obtained from Sigma Chemical Co. (St. Louis, Mo., U.S.A.). 2×10^5 BALB/c splenocytes were added per well. […] Triplicate wells were set up in 96-well flat-bottom microtiter plates for all treated cultures and positive controls (100% of control) were performed in replicates of nine wells. Plates were incubated at 37° C. in a humidified CO2 incubator for 3 days, pulsed with 1 μCi ^3 H-TdR/well for 6-16 hours, harvested and counted in a liquid scintillation counter. All data were processed using Lotus 1-2-3 and SigmaPlot software.

SMILES: C(CCNCC1CCNCC1)CNCC1CCNCC1 [PIP[4,4,4], N,N'-Bis(4-piperidinylmethyl)-1,4-butanediamine]
- Effect on MLR (in words) [1]: MLR was inhibited by PIP[4,4,4] primarily at 10 and 100 μm
- Proliferative response (CPM), Mean ± SD ([1]; MLR, 5 days, drug 0.010 μm): 330859 ± 11640 CPM
- Proliferative response (CPM), Mean ± SD ([1]; MLR, 5 days, drug 0.100 μm): 411919 ± 6106 CPM
- Proliferative response (CPM), Mean ± SD ([1]; MLR, 5 days, drug 1.000 μm): 54594 ± 11873 CPM
- Proliferative response (CPM), Mean ± SD ([1]; MLR, 5 days, drug 10.000 μm): 568531 ± 6200 CPM
- Proliferative response (CPM), Mean ± SD ([1]; MLR, 5 days, drug 100.000 μm): 29717 ± 3146 CPM
- Proliferative response (CPM), Mean ± SD ([1]; MLR, 5 days, drug 1000.000 μm): 22583 ± 2490 CPM
- activity at 0.01 µM ([1]; Mus musculus, Splenocyte, 120 h, MLR, 5 days, drug 0.010 μm, read-out: % Control): 79%
- activity at 0.1 µM ([1]; Mus musculus, Splenocyte, 120 h, MLR, 5 days, drug 0.100 μm, read-out: % Control): 99%
- activity at 1 µM ([1]; Mus musculus, Splenocyte, 120 h, MLR, 5 days, drug 1.000 μm, read-out: % Control): 131%
- activity at 10 µM ([1]; Mus musculus, Splenocyte, 120 h, MLR, 5 days, drug 10.000 μm, read-out: % Control): 136%
- activity at 100 µM ([1]; Mus musculus, Splenocyte, 120 h, MLR, 5 days, drug 100.000 μm, read-out: % Control): 71%
- activity at 1000 µM ([1]; Mus musculus, Splenocyte, 120 h, MLR, 5 days, drug 1000.000 μm, read-out: % Control): 54%
- Proliferative response (CPM), Mean ± SD ([2]; LPS 25 μg/ml, drug 0.010 μm): 175516 ± 10793 CPM
- Proliferative response (CPM), Mean ± SD ([2]; LPS 25 μg/ml, drug 0.100 μm): 174197 ± 23886 CPM
- Proliferative response (CPM), Mean ± SD ([2]; LPS 25 μg/ml, drug 1.000 μm): 192921 ± 32628 CPM
- Proliferative response (CPM), Mean ± SD ([2]; LPS 25 μg/ml, drug 10.000 μm): 187500 ± 8089 CPM
- Proliferative response (CPM), Mean ± SD ([2]; LPS 25 μg/ml, drug 100.000 μm): 117804 ± 14014 CPM
- Proliferative response (CPM), Mean ± SD ([2]; LPS 25 μg/ml, drug 1000.000 μm): 83427 ± 18281 CPM
- activity at 0.01 µM ([2]; Mus musculus, Splenocyte, 72 h, LPS 25 μg/ml, drug 0.010 μm, read-out: % Control): 100%
- activity at 0.1 µM ([2]; Mus musculus, Splenocyte, 72 h, LPS 25 μg/ml, drug 0.100 μm, read-out: % Control): 99%
- activity at 1 µM ([2]; Mus musculus, Splenocyte, 72 h, LPS 25 μg/ml, drug 1.000 μm, read-out: % Control): 110%
- activity at 10 µM ([2]; Mus musculus, Splenocyte, 72 h, LPS 25 μg/ml, drug 10.000 μm, read-out: % Control): 106%
- activity at 100 µM ([2]; Mus musculus, Splenocyte, 72 h, LPS 25 μg/ml, drug 100.000 μm, read-out: % Control): 67%
- activity at 1000 µM ([2]; Mus musculus, Splenocyte, 72 h, LPS 25 μg/ml, drug 1000.000 μm, read-out: % Control): 47%
- Effect on LPS response (in words) ([2]; suppression in the 1-100 μm range): some inhibition of the LPS response; also recorded: some dose-dependent suppression
